# Source: patent publication US20050112573A1, “Method of detecting toxic substance” (priority 2001, published 2005)
# Test system: yeast genes (level of expressed mRNA)
# Assay: DNA chip analysis of expressed mRNA of yeast genes after 2 h culture with a toxic chemical substance
# Type: cell-based, Saccharomyces cerevisiae S288C
# How it was run: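 Values are treated-to-control fluorescence ratios from a whole-yeast-genome DNA chip (65° C, over 12 h hybridization) using Cy3/Cy5-labelled cDNA from mRNA. Log-phase S288C cells in YPD at 25° C were exposed 2 h to a toxicant at sublethal, growth-inhibiting concentration.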
substance,measurement,setting,value
CdCl2 [(2)],The level of expressed mRNA in the presence of chemical substance/,"yeast gene YAL053W, ratio to control without chemical",0.9
same,The level of expressed mRNA in the presence of chemical substance/The level of expressed mRNA in the absence of chemical substance,yeast gene YAR010C,1.2
same,The level of expressed mRNA in the presence of chemical substance/The level of expressed mRNA in the absence of chemical substance,yeast gene YBL005W-A,0.9
same,The level of expressed mRNA in the presence of chemical substance/The level of expressed mRNA in the absence of chemical substance,yeast gene YBL041W,1.4
same,The level of expressed mRNA in the presence of chemical substance/The level of expressed mRNA in the absence of chemical substance,yeast gene YBL043W,1.2
same,The level of expressed mRNA in the presence of chemical substance/,"yeast gene YBL048W, ratio to control without chemical substance, 2 h culture",7.9
same,The level of expressed mRNA in the presence of chemical substance/The level of expressed mRNA in the absence of chemical substance,yeast gene YBL078C,2.7
same,The level of expressed mRNA in the presence of chemical substance/,"yeast gene YBL107C, ratio to control without chemical substance, 2 h culture",1.1
same,The level of expressed mRNA in the presence of chemical substance/in the absence of chemical substance,yeast gene YBR036C,1.7
same,The level of expressed mRNA in the presence of chemical substance/The level of expressed mRNA in the absence of chemical substance,yeast gene YBR214W,2.1
same,The level of expressed mRNA in the presence of chemical substance/in the absence of chemical substance,yeast gene YBR298C,1.0
same,The level of expressed mRNA in the presence of chemical substance/The level of expressed mRNA in the absence of chemical substance,yeast gene YCL020W,2.5
same,The level of expressed mRNA in the presence of chemical substance/The level of expressed mRNA in the absence of chemical substance,yeast gene YCL027W,2.0
same,The level of expressed mRNA in the presence of chemical substance/The level of expressed mRNA in the absence of chemical substance,yeast gene YCR004C,1.0
same,The level of expressed mRNA in the presence of chemical substance/The level of expressed mRNA in the absence of chemical substance,yeast gene YCR071C,0.7
same,The level of expressed mRNA in the presence of chemical substance/The level of expressed mRNA in the absence of chemical substance,yeast gene YCR088W,1.1
same,The level of expressed mRNA in the presence of chemical substance/The level of expressed mRNA in the absence of chemical substance,yeast gene YDL008W,1.0
same,The level of expressed mRNA in the presence of chemical substance/,"yeast gene YDL072C, ratio to control without chemical",1.1
same,The level of expressed mRNA in the presence of chemical substance/in the absence of chemical substance,yeast gene YDL078C,1.1
same,The level of expressed mRNA in the presence of chemical substance/,"yeast gene YDL204W, ratio to control without chemical",1.9
same,The level of expressed mRNA in the presence of chemical substance/in the absence of chemical substance,yeast gene YDL215C,1.5
same,The level of expressed mRNA in the presence of chemical substance/,"yeast gene YDL222C, ratio to control without chemical",1.1
same,The level of expressed mRNA in the presence of chemical substance/The level of expressed mRNA in the absence of chemical substance,yeast gene YDL238C,1.0
same,The level of expressed mRNA in the presence of chemical substance/The level of expressed mRNA in the absence of chemical substance,yeast gene YDR055W,2.1
same,The level of expressed mRNA in the presence of chemical substance/The level of expressed mRNA in the absence of chemical substance,yeast gene YDR084C,0.9
same,The level of expressed mRNA in the presence of chemical substance/The level of expressed mRNA in the absence of chemical substance,yeast gene YDR085C,1.8
same,The level of expressed mRNA in the presence of chemical substance/The level of expressed mRNA in the absence of chemical substance,yeast gene YDR104C,1.1
same,The level of expressed mRNA in the presence of chemical substance/The level of expressed mRNA in the absence of chemical substance,yeast gene YDR115W,0.9
same,The level of expressed mRNA in the presence of chemical substance/The level of expressed mRNA in the absence of chemical substance,yeast gene YDR259C,1.0
same,The level of expressed mRNA in the presence of chemical substance/in the absence of chemical substance,yeast gene YDR297W,0.8
same,The level of expressed mRNA in the presence of chemical substance/The level of expressed mRNA in the absence of chemical substance,yeast gene YDR315C,1.4
same,The level of expressed mRNA in the presence of chemical substance/,"yeast gene YDR330W, ratio to control without chemical substance, 2 h culture",1.5
same,The level of expressed mRNA in the presence of chemical substance/The level of expressed mRNA in the absence of chemical substance,yeast gene YDR358W,1.1
same,The level of expressed mRNA in the presence of chemical substance/in the absence of chemical substance,yeast gene YDR387C,0.9
same,The level of expressed mRNA in the presence of chemical substance/The level of expressed mRNA in the absence of chemical substance,yeast gene YDR388W,0.7
same,The level of expressed mRNA in the presence of chemical substance/,"yeast gene YDR411C, ratio to control without chemical substance, 2 h culture",2.8
same,The level of expressed mRNA in the presence of chemical substance/The level of expressed mRNA in the absence of chemical substance,yeast gene YDR432W,0.8
same,The level of expressed mRNA in the presence of chemical substance/The level of expressed mRNA in the absence of chemical substance,yeast gene YDR481C,2.3
same,The level of expressed mRNA in the presence of chemical substance/The level of expressed mRNA in the absence of chemical substance,yeast gene YDR510W,1.3
same,The level of expressed mRNA in the presence of chemical substance/,"yeast gene YDR511W, ratio to control without chemical substance, 2 h culture",1.7
same,The level of expressed mRNA in the presence of chemical substance/,"yeast gene YDR545W, ratio to control without chemical substance, 2 h culture",1.2
same,The level of expressed mRNA in the presence of chemical substance/,"yeast gene YEL001C, ratio to control without chemical",1.0
same,The level of expressed mRNA in the presence of chemical substance/The level of expressed mRNA in the absence of chemical substance,yeast gene YEL042W,0.9
same,The level of expressed mRNA in the presence of chemical substance/The level of expressed mRNA in the absence of chemical substance,yeast gene YEL066W,2.9
same,The level of expressed mRNA in the presence of chemical substance/,"yeast gene YER004W, ratio to control without chemical substance, 2 h culture",1.5
same,The level of expressed mRNA in the presence of chemical substance/,"yeast gene YER035W, ratio to control without chemical substance, 2 h culture",1.6
same,The level of expressed mRNA in the presence of chemical substance/The level of expressed mRNA in the absence of chemical substance,yeast gene YER039C,1.2
same,The level of expressed mRNA in the presence of chemical substance/,"yeast gene YER079W, ratio to control without chemical substance, 2 h culture",1.6
same,The level of expressed mRNA in the presence of chemical substance/,"yeast gene YER106W, ratio to control without chemical",0.7
same,The level of expressed mRNA in the presence of chemical substance/The level of expressed mRNA in the absence of chemical substance,yeast gene YER107C,0.5
same,The level of expressed mRNA in the presence of chemical substance/The level of expressed mRNA in the absence of chemical substance,yeast gene YER130C,1.6
same,The level of expressed mRNA in the presence of chemical substance/,"yeast gene YER158C, ratio to control without chemical substance, 2 h culture",0.9
same,The level of expressed mRNA in the presence of chemical substance/,"yeast gene YER163C, ratio to control without chemical substance, 2 h culture",2.4
same,The level of expressed mRNA in the presence of chemical substance/,"yeast gene YER175C, ratio to control without chemical substance, 2 h culture",1.2
same,The level of expressed mRNA in the presence of chemical substance/,"yeast gene YFL006W, ratio to control without chemical substance, 2 h culture",2.8
